The experiment has as its target human MCH-1 receptor (Homo sapiens (Human), UniProt Q99705). Nature of the experiment: Binding assay for human melanin-concentrating hormone (MCH1) receptor. The conditions noted are these: membranes from CHO-K1 cells expressing human MCH-1 receptor; 1.4 nM [3H]-labeled radioligand; 60 min at 25° C.; Ki by Cheng Prusoff. The protocol: Evaluation of the affinity of compounds for the human MCH-1 receptor was accomplished using 4-(3,4,5-tritritiumbenzyloxy)-1-(1-(2-(pyrrolidin-1-yl)ethyl)-1H-indazol-5-yl)pyridin-2(1H)-one and membranes prepared from stable CHO-K1 cells expressing the human MCH-1 receptor obtained from Euroscreen (Batch 1138). Cell membrane homogenates (8.92 μg protein) were incubated for 60 min at 25° C. with 1.4 nM of the [^3H]-labeled compound in the absence or presence of the test compound in 50 mM Tris-HCl buffer, pH 7.4. Nonspecific binding was determined in the presence of 50 μM 1-(5-(4-cyanophenyl)bicyclo[3.1.0]hexan-2-yl)-3-(4-fluoro-3-(trifluoromethyl)phenyl)-1-(3-(4-methylpiperazin-1-yl)propyl)urea. Following incubation, the samples were filtered rapidly under vacuum through Skatron 11731 filters, pre-soaked in 0.5% polyethylenimine, and washed with ice-cold 50 mM Tris-HCl buffer, pH 7.4, (wash setting 9,9,0) using a Skatron cell harvester. The filters were counted for radioactivity in a liquid scintillation counter (Tri-Carb 2100TR, Packard) using a scintillation cocktail (Ultima Gold MV, Perkin Elmer).
The results are expressed as a percent inhibition of the control radioligand specific binding. The IC50 value (concentration causing a half-maximal inhibition of control specific binding) and Hill coefficient (nH) were determined by non-linear regression analysis of the competition curve using Hill equation curve fitting. The inhibition constant (Ki) was calculated from the Cheng Prusoff equation: (Ki=IC50/(1+(L/KD)), where L=concentration of radioligand in the assay, and KD=affinity of the radioligand for the receptor.

Counter-ions that a name gives are not always drawn.

Chain of human MCH-1 receptor (Q99705 whole entry): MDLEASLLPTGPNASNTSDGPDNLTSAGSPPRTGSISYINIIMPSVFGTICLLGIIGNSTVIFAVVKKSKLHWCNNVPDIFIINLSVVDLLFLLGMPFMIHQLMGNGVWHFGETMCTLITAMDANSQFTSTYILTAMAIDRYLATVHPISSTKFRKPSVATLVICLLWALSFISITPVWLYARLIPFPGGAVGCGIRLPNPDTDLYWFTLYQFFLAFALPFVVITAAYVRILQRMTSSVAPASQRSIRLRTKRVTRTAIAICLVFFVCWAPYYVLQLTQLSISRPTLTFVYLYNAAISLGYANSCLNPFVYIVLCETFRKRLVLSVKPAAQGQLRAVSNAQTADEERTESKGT

With `Cn1c2c(c3ccc(-n4ccc(OCc5ccccc5)cc4=O)cc31)CN1CCC2C1` (stereo not shown) [Example 2, 4-(Benzyloxy)-1-(6-methyl-3,4,5,6-tetrahydro-1H-2,5-methanoazepino[4,3-b]indol-8-yl)pyridin-2(1H)-one hydrochloride], the Ki came out at 6.4 nM.

In turn, `Cn1c2c(c3ccc(-n4ccc(OCc5ccccc5)cc4=O)cc31)CN1CCC2CC1` [Example 3, 4-(Benzyloxy)-1-(6-methyl-3,4,5,6-tetrahydro-1H-2,5-ethanoazepino[4,3-b]indol-8-yl)pyridin-2(1H)-one hydrochloride] registered a Ki of 5.9 nM.

As to `Cn1c2c(c3ccc(-n4ccc(OCc5ccc(F)cn5)cc4=O)cc31)CN1CCC2CC1` [Example 4, 4-((5-Fluoropyridin-2-yl)methoxy)-1-(6-methyl-3,4,5,6-tetrahydro-1H-2,5-ethanoazepino[4,3-b]indol-8-yl)pyridin-2(1H)-one hydrochloride], the Ki is 44 nM.

Compound `Cn1c2c(c3ccc(-n4ccc(-c5ccc(C(F)(F)F)nn5)cc4=O)cc31)CN1CCC2CC1` [Example 5, 1-(6-Methyl-3,4,5,6-tetrahydro-1H-2,5-ethanoazepino[4,3-b]indol-8-yl)-4-(6-(trifluoromethyl)pyridazin-3-yl)pyridin-2(1H)-one hydrochloride] displayed a Ki of 23 nM.

Consider `Cn1c2c(c3ccc(-n4ccc(-c5ccc(C(F)(F)F)cn5)cc4=O)cc31)CN1CCC2CC1` [Example 6, 1-(6-Methyl-3,4,5,6-tetrahydro-1H-2,5-ethanoazepino[4,3-b]indol-8-yl)-4-(5-(trifluoromethyl)pyridin-2-yl)pyridin-2(1H)-one hydrochloride], for which affinity was put at a Ki of 123 nM.

`Cn1c2c(c3ccc(-n4ccc(OCc5ccc(C(F)(F)F)nc5)cc4=O)cc31)CN1CCC2CC1` [Example 7, 1-(6-Methyl-3,4,5,6-tetrahydro-1H-2,5-ethanoazepino[4,3-b]indol-8-yl)-4-((6-(trifluoromethyl)pyridin-3-yl)methoxy)pyridin-2(1H)-one hydrochloride] came in with a Ki of 11 nM.

On to `Cn1c2c(c3ccc(-n4ccc(OCc5ccccc5)cc4=O)nc31)CN1CCC2CC1` [Example 8, 4-(Benzyloxy)-1-(10-methyl-7,8,9,10-tetrahydro-5H-6,9-ethanopyrido[3′,2′:4,5]pyrrolo[3,2-c]azepin-2-yl)pyridin-2(1H)-one hydrochloride], for which affinity was put at a Ki of 29 nM.

Regarding `Cn1c2c(c3ccc(-n4ccc(OCc5ccc(F)cc5F)cc4=O)nc31)CN1CCC2CC1` [Example 9, 4-(2,4-Difluorobenzyloxy)-1-(10-methyl-7,8,9,10-tetrahydro-5H-6,9-ethanopyrido[3′,2′:4,5]pyrrolo[3,2-c]azepin-2-yl)pyridin-2(1H)-one hydrochloride], affinity was put at a Ki of 15 nM.

`Cn1c2c(c3ccc(-n4ccc(-c5ccc(C(F)(F)F)cc5)cc4=O)nc31)CN1CCC2CC1` [Example 10, 1-(10-Methyl-7,8,9,10-tetrahydro-5H-6,9-ethanopyrido[3′,2′:4,5]pyrrolo[3,2-c]azepin-2-yl)-4-(4-(trifluoromethyl)phenyl)pyridin-2(1H)-one hydrochloride] registered a Ki of 15 nM.

With `Cn1c2c(c3ccc(-n4ccc(OCc5ccc(F)cn5)cc4=O)nc31)CN1CCC2CC1` [Example 11, 4-((5-Fluoropyridin-2-yl)methoxy)-1-(10-methyl-7,8,9,10-tetrahydro-5H-6,9-ethanopyrido[3′,2′:4,5]pyrrolo[3,2-c]azepin-2-yl)pyridin-2(1H)-one hydrochloride], the affinity corresponds to a Ki of 25 nM.

In general, Ki refers to a measure of affinity in units of concentration, obtained from inhibition or displacement.

Values taken from US9073925B2, “Azinone-substituted azabicycloalkane-indole and azabicycloalkane-pyrrolo-pyridine MCH-1 antagonists, methods of making, and use thereof” (Albany Molecular Research, Inc., priority 2009, dated 2015).
